Literature values as cited in patent US10149395B2, “Water-based organic solderability preservative, and electronic board and surface treatment method using the same” (TAMURA CORPORATION, priority 2016, dated 2018).

Conditions: at 20 degrees C.

| SMILES | solubility to water |
| --- | --- |
| COC(C)COC(C)COC(C)CO (stereo not shown) [Organic solvent A, tripropylene glycol monomethyl ether] | miscible in all proportions |
| COCC(C)O (stereo not shown) [Organic solvent C, propylene glycol monomethyl ether] | miscible in all proportions |
| COCCOCCOCCOCCOC [Organic solvent D, tetraethylene glycol dimethyl ether] | miscible in all proportions |
| OCC1CCCO1 (stereo not shown) [Organic solvent E, tetrahydrofurfuryl alcohol] | miscible in all proportions |
| COCC(C)OC(C)=O (stereo not shown) [Organic solvent F, propylene glycol monomethyl ether acetate] | 18.5 g/100 g |
| OCCOc1ccccc1 [Organic solvent G, phenyl glycol] | 2.7 g/100 g |
| CCCCOCC(C)OCC(C)OCC(C)O (stereo not shown) [Organic solvent H, butylpropylene triglycol] | 0.4 g/100 g |
| CCCCOCCOCCOCCCC [Organic solvent I, diethylene glycol dibutylether] | 0.3 g/100 g |
| CCO [Organic solvent J, ethyl alcohol] | miscible in all proportions |
| CC(C)O [Organic solvent K, isopropyl alcohol] | miscible in all proportions |
